{"source": "patent US20220370385A1", "about": "“COMPOSITIONS FOR USE IN INHIBITING SRC KINASE AND TREATING AND PREVENTING ASSOCIATED DISORDERS” (Enzene Biosciences Ltd., priority 2019, published 2022)", "key": {"[1]": {"tested_on": "colon cancer cell line HCT116", "assay": "Anti-proliferative activity in HCT116", "type": "cell-based"}, "[2]": {"tested_on": "breast cancer cell line BT-474", "assay": "Anti-proliferative activity in BT-474", "type": "cell-based"}, "[3]": {"biological_target": "T1, SRC kinase (Homo sapiens, UniProt P12931)", "T1 construct": "purchased Promega", "T1 sequence (P12931 whole entry)": "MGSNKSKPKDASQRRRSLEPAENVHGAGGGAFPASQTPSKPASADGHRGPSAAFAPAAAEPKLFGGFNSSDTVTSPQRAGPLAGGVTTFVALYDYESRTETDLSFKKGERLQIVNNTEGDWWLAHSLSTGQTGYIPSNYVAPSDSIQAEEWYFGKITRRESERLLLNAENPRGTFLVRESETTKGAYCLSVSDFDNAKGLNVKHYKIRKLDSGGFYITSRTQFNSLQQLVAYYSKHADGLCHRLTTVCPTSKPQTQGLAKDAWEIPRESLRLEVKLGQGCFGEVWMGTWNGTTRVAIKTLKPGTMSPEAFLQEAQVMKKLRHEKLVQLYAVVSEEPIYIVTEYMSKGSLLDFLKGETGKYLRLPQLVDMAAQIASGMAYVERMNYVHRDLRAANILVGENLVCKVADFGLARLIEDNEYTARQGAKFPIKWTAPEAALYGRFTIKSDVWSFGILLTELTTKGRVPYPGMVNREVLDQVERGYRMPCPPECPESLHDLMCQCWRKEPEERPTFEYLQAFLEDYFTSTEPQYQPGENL", "assay": "Kinase inhibitor screening assay (Promega kinase selectivity profiling, ADP-Glo)", "type": "biochemical", "design": "dose or concentration left out as unconfirmed", "settings": "panel of 16 tyrosine kinases", "procedure": "The kinase selectivity profiling systems from Promega was used to check the inhibitory activity of the purified compound against the broad panel of Tyrosine kinases. The kinase selectivity assays were assembled in a 384-well plate using 1 μl of the purified compound ([…]), 2 μl of each kinase working stock and 2 μl of the corresponding ATP/Substrate working stock as per the manufacturer protocol and kinase activity was quantified using the ADP-Glo™ kinase assay from Promega. The reaction assembled with kinase and corresponding ATP/Substrate without the purified compound was used as a positive control."}, "[4]": {"tested_on": "MDA-MB-468 cells", "assay": "MDA-MB-468 cell viability, CellTiter-Glo, 24 hrs", "type": "cell-based, human", "settings": "Homo sapiens, 24 hrs incubation", "procedure": "MDA-MB-468 cells, isolated from a pleural effusion of a patient with metastatic adenocarcinoma of the breast, is a triple negative breast cancer (TNBC) cell line. The IC 50 value of E05 or lapatinib (Sigma) or the structural analogues of E05 were tested in this cell line.\n(§1) Briefly, MDA-MB-468 cells (ATCC #HTB-32) were seeded with a density of 5,000 cells per well in a 96 well white plate (Costar Cat #3917) in DMEM media supplemented with 10% FBS (assay medium). The plates were incubated at 37° C., 5% CO2 for 24 hr. E05 and analogues were diluted in the assay medium and added to the respective wells of the assay plate. The plates were further incubated at 37° C., 5% CO2 for 24 hrs. After the incubation, the cell viability was assessed using CellTiter-Glo® and the plates were read for luminescence using Cytation 5 (Biotek). The relative luminescence unit (RLU) obtained was plotted against the concentration and EC50 values were estimated using Graphpad Prism 5 software (FIG. 15 and Table 2)."}, "[5]": {"tested_on": "MDA-MB-468 cells", "assay": "MDA-MB-468 cell viability, CellTiter-Glo, 8 hrs, comparison with lapatinib", "type": "cell-based, human", "settings": "MDA-MB-468, within 8 hrs of incubation", "procedure": "as §1, with “MDA-MB-468 cells” for “Briefly, MDA-MB-468 cells”, “E05 and Lapatinib was diluted in” for “E05 and analogues were diluted in”, “the assay plates. The plates” for “the assay plate. The plates”, “CO2 for 8 hrs. After” for “CO2 for 24 hrs. After”, “Prism 5 software.” for “Prism 5 software (FIG. 15 and Table 2).”"}, "[6]": {"tested_on": "MDA-MB-468", "assay": "Murine xenograft model of Triple-Negative Breast Cancer", "type": "in vivo, SCID mice", "settings": "oral, twice daily", "procedure": "Efficacy study of E05 and positive control (5-Fluorouracil) were carried out in a murine xenograft model of Triple-Negative Breast Cancer (MDA-MB-468). Dosing was done as per the Table. 3.\nFemale SCID (Severe Combined Immunodeficient) mice were used for this study.\nApproximately 5×10^6 cells in 0.2 mL FBS free medium containing 50% of Matrigel was injected into sub-cutaneous tissue on right flank of each mouse. Treatment with E05 or with positive control was initiated when average tumor volume reaches ˜100 mm3. Tumor volume was measured periodically."}, "[7]": {"assay": "Repeated dose 7-day dose range finding study, intravenous bolus injection", "type": "in vivo", "settings": "for Morbidity % / Morbidity No / Mortality % / Mortality No: i.v. bolus 7 days", "procedure": "Repeated dose 7-day dose range finding study (DRF) of E05 through intravenous bolus injection was carried out in Wistar rats."}, "[8]": {"assay": "Repeated dose 7-day dose range finding study, oral gavage", "type": "in vivo", "procedure": "Repeated dose 7-day dose range finding study (DRF) of E05 through oral gavage was carried out in Wistar rats."}, "[9]": {"assay": "Maximum tolerated dose study, oral gavage", "type": "in vivo", "settings": "Female G1 175 mg/kg b. wt., single oral gavage", "procedure": "A maximum tolerated dose (MTD) study was carried out with E05. In MTD study, group of 3 male and 3 female rats were dosed at 175 (group 1), 550 (group 2), 1750 (group 3) and 2000 (group 4) mg/kg b. wt."}, "[10]": {"settings": "Female G2 250 mg/kg b. wt., oral gavage 7 days"}, "[11]": {"settings": "Female G3 500 mg/kg b. wt., oral gavage 7 days"}, "[12]": {"settings": "Female G4 1000 mg/kg b. wt., oral gavage 7 days"}, "[13]": {"settings": "Male G2 250 mg/kg b. wt., oral gavage 7 days"}, "[14]": {"settings": "Male G3 500 mg/kg b. wt., oral gavage 7 days"}, "[15]": {"settings": "Male G4 1000 mg/kg b. wt., oral gavage 7 days"}}, "note": "“Also recorded” adds a separate entry of the source."}
{"smiles": "O=C(O)CCc1ccc(O)c(O)c1", "note": "[E05, 3-(3,4-Dihydroxyphenyl) propanoic acid]", "values": [{"measurement": "inhibition of growth", "setting": "[1]", "value": "dose dependent response; also recorded: dose dependent inhibition of growth"}, {"measurement": "inhibition of growth", "setting": "[2]", "value": "dose dependent response; also recorded: dose dependent inhibition of growth"}, {"measurement": "SRC kinase activity", "setting": "[3]", "value": "inhibited"}, {"measurement": "EC50", "setting": "[4]", "value": 86.1, "unit": "µM"}, {"measurement": "inhibition compared with lapatinib", "setting": "[5]", "value": "stronger inhibition in compare to lapatinib"}, {"measurement": "efficacy in the murine xenograft model of TNBC", "setting": "[6]; 6 weeks", "value": "statistically significant efficacy"}, {"measurement": "tumor volumes", "setting": "[6]; 6 weeks, 75, 200, 500 mg/kg", "value": "Dose dependent decrease in tumor volumes"}, {"measurement": "Morbidity %", "setting": "[7]; Female G2 125 mg/kg b. wt", "value": 0, "unit": "%"}, {"measurement": "Morbidity No", "setting": "[7]; Female G2 125 mg/kg b. wt", "value": 0}, {"measurement": "Mortality %", "setting": "[7]; Female G2 125 mg/kg b. wt", "value": 0, "unit": "%"}, {"measurement": "Mortality No", "setting": "[7]; Female G2 125 mg/kg b. wt", "value": 0}, {"measurement": "Morbidity %", "setting": "[7]; Female G3 250 mg/kg b. wt", "value": 0, "unit": "%"}, {"measurement": "Morbidity No", "setting": "[7]; Female G3 250 mg/kg b. wt", "value": 0}, {"measurement": "Mortality %", "setting": "[7]; Female G3 250 mg/kg b. wt", "value": 0, "unit": "%"}, {"measurement": "Mortality No", "setting": "[7]; Female G3 250 mg/kg b. wt", "value": 0}, {"measurement": "Morbidity %", "setting": "[7]; Female G4 500 mg/kg b. wt", "value": 0, "unit": "%"}, {"measurement": "Morbidity No", "setting": "[7]; Female G4 500 mg/kg b. wt", "value": 0}, {"measurement": "Mortality %", "setting": "[7]; Female G4 500 mg/kg b. wt", "value": 0, "unit": "%"}, {"measurement": "Mortality No", "setting": "[7]; Female G4 500 mg/kg b. wt", "value": 0}, {"measurement": "Morbidity %", "setting": "[7]; Male G2 125 mg/kg b. wt", "value": 0, "unit": "%"}, {"measurement": "Morbidity No", "setting": "[7]; Male G2 125 mg/kg b. wt", "value": 0}, {"measurement": "Mortality %", "setting": "[7]; Male G2 125 mg/kg b. wt", "value": 0, "unit": "%"}, {"measurement": "Mortality No", "setting": "[7]; Male G2 125 mg/kg b. wt", "value": 0}, {"measurement": "Morbidity %", "setting": "[7]; Male G3 250 mg/kg b. wt", "value": 0, "unit": "%"}, {"measurement": "Morbidity No", "setting": "[7]; Male G3 250 mg/kg b. wt", "value": 0}, {"measurement": "Mortality %", "setting": "[7]; Male G3 250 mg/kg b. wt", "value": 0, "unit": "%"}, {"measurement": "Mortality No", "setting": "[7]; Male G3 250 mg/kg b. wt", "value": 0}, {"measurement": "Morbidity %", "setting": "[7]; Male G4 500 mg/kg b. wt", "value": 0, "unit": "%"}, {"measurement": "Morbidity No", "setting": "[7]; Male G4 500 mg/kg b. wt", "value": 0}, {"measurement": "Mortality %", "setting": "[7]; Male G4 500 mg/kg b. wt", "value": 0, "unit": "%"}, {"measurement": "Mortality No", "setting": "[7]; Male G4 500 mg/kg b. wt", "value": 0}, {"measurement": "systemic toxicity", "setting": "[7]; up to 500 mg/kg b. wt., daily intravenous bolus, 7 consecutive days", "value": "did not produce any systemic toxicity"}, {"measurement": "Morbidity %", "setting": "[8]; [10]", "value": 0, "unit": "%"}, {"measurement": "Morbidity No", "setting": "[8]; [10]", "value": 0}, {"measurement": "Mortality %", "setting": "[8]; [10]", "value": 0, "unit": "%"}, {"measurement": "Mortality No", "setting": "[8]; [10]", "value": 0}, {"measurement": "Morbidity %", "setting": "[8]; [11]", "value": 0, "unit": "%"}, {"measurement": "Morbidity No", "setting": "[8]; [11]", "value": 0}, {"measurement": "Mortality %", "setting": "[8]; [11]", "value": 0, "unit": "%"}, {"measurement": "Mortality No", "setting": "[8]; [11]", "value": 0}, {"measurement": "Morbidity %", "setting": "[8]; [12]", "value": 0, "unit": "%"}, {"measurement": "Morbidity No", "setting": "[8]; [12]", "value": 0}, {"measurement": "Mortality %", "setting": "[8]; [12]", "value": 0, "unit": "%"}, {"measurement": "Mortality No", "setting": "[8]; [12]", "value": 0}, {"measurement": "Morbidity %", "setting": "[8]; [13]", "value": 0, "unit": "%"}, {"measurement": "Morbidity No", "setting": "[8]; [13]", "value": 0}, {"measurement": "Mortality %", "setting": "[8]; [13]", "value": 0, "unit": "%"}, {"measurement": "Mortality No", "setting": "[8]; [13]", "value": 0}, {"measurement": "Morbidity %", "setting": "[8]; [14]", "value": 0, "unit": "%"}, {"measurement": "Morbidity No", "setting": "[8]; [14]", "value": 0}, {"measurement": "Mortality %", "setting": "[8]; [14]", "value": 0, "unit": "%"}, {"measurement": "Mortality No", "setting": "[8]; [14]", "value": 0}, {"measurement": "Morbidity %", "setting": "[8]; [15]", "value": 0, "unit": "%"}, {"measurement": "Morbidity No", "setting": "[8]; [15]", "value": 0}, {"measurement": "Mortality %", "setting": "[8]; [15]", "value": 0, "unit": "%"}, {"measurement": "Mortality No", "setting": "[8]; [15]", "value": 0}, {"measurement": "food consumption, organ weight and relative organ weight", "setting": "[8]; male and female rats, oral gavage 7 days", "value": "No treatment-related changes"}, {"measurement": "mortality, morbidity or clinical sign", "setting": "[8]; rat, in vivo, po", "value": "no mortality, morbidity or clinical sign"}, {"measurement": "toxicity", "setting": "[8]; up to 1000 mg/kg b. wt., orally through gavage, 7 consecutive days", "value": "did not produce any toxicity"}, {"measurement": "Morbidity on Experimental Day 1", "setting": "[9]", "value": 0}, {"measurement": "Morbidity on Experimental Day 2", "setting": "[9]", "value": 0}, {"measurement": "Morbidity on Experimental Day 3", "setting": "[9]", "value": 0}, {"measurement": "Morbidity on Experimental Day 4", "setting": "[9]", "value": 0}]}
